Experimental data: ChEMBL document CHEMBL5620357, “Synthesis and anti-inflammatory activity evaluation of NO-releasing furoxan/1,2,4-triazole hybrid derivatives” (Eur J Med Chem, 2023)
Activity calls are given as the source filed them. No cut-off for these calls is given here.

Key:
[1] = Cytotoxicity against mouse RAW264.7 cells assessed as cell viability at 50 uM measured after 24 hrs by MTT assay; assay type: toxicity, cell-based; conditions: read-out: Activity
[2] = Cytotoxicity against mouse RAW264.7 cells assessed as maximal safe dose measured after 24 hrs by MTT assay; assay type: toxicity, cell-based; conditions: read-out: MTD
[3] = Gastric ulcerogenic activity in mouse assessed as mucosal erosion and inflammatory cellular infiltration at 2.5 to 10 mg/kg, po by hematoxylin and eosin staining based assay; assay type: toxicity, organism-based; conditions: in vivo, dose 2.5-10 mg/kg
RAW264.7 = test: cells; conditions: Mus musculus, RAW264.7, 24 h
Description: Anti-inflammatory activity against mouse RAW264.7 cells assessed as inhibition of LPS-induced NO production measured after 24 hrs incubation by Griess analysis

Mus musculus [4] = test: Anti-inflammatory activity against carrageenan-induced hind paw edema mouse model assessed as decrease in COX-2 expression in connective tissue at 10 mg/kg, po; assay type: functional, organism-based
Mus musculus [5] = test: Anti-inflammatory activity against carrageenan-induced paw edema in ICR mouse model assessed as reduction in TNF-alpha level in serum at 10 mg/kg, po measured after 5 hrs by ELISA relative to control; assay type: functional
Mus musculus [6] = test: Anti-inflammatory activity against carrageenan-induced paw edema in ICR mouse model assessed as reduction in IL-6 level in serum at 10 mg/kg, po measured after 5 hrs by ELISA relative to control; assay type: functional
Mus musculus [7] = test: Anti-inflammatory activity against carrageenan-induced hind paw edema mouse model assessed as reduction in cellular infiltration in connective tissue at 10 mg/kg, po; assay type: functional, organism-based

| SMILES | viability at 24 h, 50 µM [1] [%] | MNTC at 24 h [2] [µg/mL] | IC50 (RAW264.7) [µM] | other results |
| --- | --- | --- | --- | --- |
| Cc1ccc(-n2nc(C(=O)OCc3c(-c4ccccc4)no[n+]3[O-])nc2CCl)cc1 | > 95 | ~20 | – | – |
| O=C(OCc1c(-c2ccccc2)no[n+]1[O-])c1nc(CCl)n(-c2cccc(C(F)(F)F)c2)n1 | > 95 | ~20 | – | Activity [3]: Non-Toxic |
| O=C(OCc1c(-c2ccccc2)no[n+]1[O-])c1nc(CCl)n(-c2cccc(F)c2)n1 | > 95 | ~20 | – | – |
| O=C(OCc1c(-c2ccccc2)no[n+]1[O-])c1nc(CCl)n(-c2ccccc2F)n1 | > 95 | ~20 | 14.6 | – |
| O=C(OCc1c(-c2ccccc2)no[n+]1[O-])c1nc(CCl)n(-c2ccccc2C(F)(F)F)n1 | > 95 | ~20 | 13.8 | – |
| N#Cc1ccc(-n2nc(C(=O)OCc3c(-c4ccccc4)no[n+]3[O-])nc2CCl)cc1 | > 95 | ~20 | – | – |
| Cc1cccc(-n2nc(C(=O)OCc3c(-c4ccccc4)no[n+]3[O-])nc2CCl)c1 | > 95 | ~20 | 6.1 | – |
| O=C(OCc1c(-c2ccccc2)no[n+]1[O-])c1nc(CCl)n(-c2ccccc2)n1 | > 95 | ~20 | – | – |
| O=C(OCc1c(-c2ccccc2)no[n+]1[O-])c1nc(CCl)n(-c2ccc(C(F)(F)F)cc2)n1 | > 95 | ~20 | – | – |
| COc1ccc(-n2nc(C(=O)OCc3c(-c4ccccc4)no[n+]3[O-])nc2CCl)cc1 | > 95 | ~20 | – | – |
| O=C(OCc1c(-c2ccccc2)no[n+]1[O-])c1nc(CCl)n(-c2ccc(F)cc2)n1 | > 95 | ~20 | – | – |
| COc1ccc2c(c1)c(CC(=O)O)c(C)n2C(=O)c1ccc(Cl)cc1 [INDOMETHACIN] | – | – | 56.8 | Activity [3]: Toxic; Activity (Mus musculus [4]): Active; inhibition in vivo at 10 mg/kg (Mus musculus [5]): 29.8%; inhibition in vivo at 10 mg/kg (Mus musculus [6]): 44%; Activity (Mus musculus [7]): Active |
| [O-][n+]1ccno1 | – | – | 50 | – |
